Measurements from ChEMBL document CHEMBL3352227, “Synthesis, antimycobacterial and antibacterial evaluation of l-[(1R, 2S)-2-fluorocyclopropyl]fluoroquinolone derivatives containing an oxime functional moiety” (Eur J Med Chem, 2014).
In brackets after ≈: the same amount, converted by molar mass.

Experiments:
Format in all cases: functional
Staphylococcus aureus [1] = assay: Antibacterial activity against Staphylococcus aureus ATCC 25923 after 18 to 24 hrs by standard twofold serial dilution method
Streptococcus pneumoniae [2] = assay: Antibacterial activity against Streptococcus pneumoniae 12-18 after 18 to 24 hrs by standard twofold serial dilution method
Streptococcus pneumoniae [3] = assay: Antibacterial activity against Streptococcus pneumoniae ATCC 49619 after 18 to 24 hrs by standard twofold serial dilution method
Escherichia coli [4] = assay: Antibacterial activity against Escherichia coli ATCC 25922 after 18 to 24 hrs by standard twofold serial dilution method
Klebsiella pneumoniae [5] = assay: Antibacterial activity against Klebsiella pneumoniae 12-1 after 18 to 24 hrs by standard twofold serial dilution method
Klebsiella pneumoniae [6] = assay: Antibacterial activity against Klebsiella pneumoniae 12-2 after 18 to 24 hrs by standard twofold serial dilution method
Klebsiella pneumoniae [7] = assay: Antibacterial activity against Klebsiella pneumoniae 12-4 after 18 to 24 hrs by standard twofold serial dilution method
[8] = test system: Staphylococcus epidermidis; assay: Antibacterial activity against methicillin-sensitive Staphylococcus epidermidis 12-3 after 18 to 24 hrs by standard twofold serial dilution method
[9] = test system: Mycobacterium tuberculosis; assay: Antimycobacterial activity against Mycobacterium tuberculosis H37Rv ATCC 27294 by MABA method
Staphylococcus aureus [10] = assay: Antibacterial activity against methicillin-resistant Staphylococcus aureus 12-5 after 18 to 24 hrs by standard twofold serial dilution method
Staphylococcus aureus [11] = assay: Antibacterial activity against methicillin-sensitive Staphylococcus aureus 12-2 after 18 to 24 hrs by standard twofold serial dilution method
[12] = test system: Staphylococcus epidermidis; assay: Antibacterial activity against methicillin-resistant Staphylococcus epidermidis 12-1 after 18 to 24 hrs by standard twofold serial dilution method
Staphylococcus aureus [13] = assay: Antibacterial activity against methicillin-resistant Staphylococcus aureus 12-2 after 18 to 24 hrs by standard twofold serial dilution method
Pseudomonas aeruginosa [14] = assay: Antibacterial activity against Pseudomonas aeruginosa 12-14 after 18 to 24 hrs by standard twofold serial dilution method
Escherichia coli [15] = assay: Antibacterial activity against extended-spectrum beta-lactamase producing Escherichia coli 12-14 after 18 to 24 hrs by standard twofold serial dilution method
Escherichia coli [16] = assay: Antibacterial activity against extended-spectrum beta-lactamase producing Escherichia coli 12-2 after 18 to 24 hrs by standard twofold serial dilution method
Klebsiella pneumoniae [17] = assay: Antibacterial activity against extended-spectrum beta-lactamase producin Klebsiella pneumoniae 12-3 after 18 to 24 hrs by standard twofold serial dilution method
[18] = test system: Staphylococcus epidermidis; assay: Antibacterial activity against methicillin-sensitive Staphylococcus epidermidis 12-8 after 18 to 24 hrs by standard twofold serial dilution method
Escherichia coli [19] = assay: Antibacterial activity against Escherichia coli 12-1 after 18 to 24 hrs by standard twofold serial dilution method
Klebsiella pneumoniae [20] = assay: Antibacterial activity against extended-spectrum beta-lactamase producin Klebsiella pneumoniae 12-4 after 18 to 24 hrs by standard twofold serial dilution method
Staphylococcus aureus [21] = assay: Antibacterial activity against methicillin-resistant Staphylococcus aureus 12-4 after 18 to 24 hrs by standard twofold serial dilution method
[22] = test system: Staphylococcus epidermidis; assay: Antibacterial activity against methicillin-sensitive Staphylococcus epidermidis 12-1 after 18 to 24 hrs by standard twofold serial dilution method
Staphylococcus aureus [23] = assay: Antibacterial activity against methicillin-sensitive Staphylococcus aureus 12-1 after 18 to 24 hrs by standard twofold serial dilution method
Klebsiella pneumoniae [24] = assay: Antibacterial activity against extended-spectrum beta-lactamase producin Klebsiella pneumoniae 12-14 after 18 to 24 hrs by standard twofold serial dilution method
Klebsiella pneumoniae [25] = assay: Antibacterial activity against extended-spectrum beta-lactamase producin Klebsiella pneumoniae 12-7 after 18 to 24 hrs by standard twofold serial dilution method
Pseudomonas aeruginosa [26] = assay: Antibacterial activity against Pseudomonas aeruginosa 12-12 after 18 to 24 hrs by standard twofold serial dilution method
Staphylococcus aureus [27] = assay: Antibacterial activity against methicillin-sensitive Staphylococcus aureus 12-4 after 18 to 24 hrs by standard twofold serial dilution method
[28] = test system: Staphylococcus epidermidis; assay: Antibacterial activity against methicillin-resistant Staphylococcus epidermidis 12-6 after 18 to 24 hrs by standard twofold serial dilution method
[29] = test system: Staphylococcus epidermidis; assay: Antibacterial activity against methicillin-sensitive Staphylococcus epidermidis 12-6 after 18 to 24 hrs by standard twofold serial dilution method
Escherichia coli [30] = assay: Antibacterial activity against extended-spectrum beta-lactamase producing Escherichia coli 12-15 after 18 to 24 hrs by standard twofold serial dilution method
Escherichia coli [31] = assay: Antibacterial activity against extended-spectrum beta-lactamase producing Escherichia coli 12-3 after 18 to 24 hrs by standard twofold serial dilution method
Staphylococcus aureus [32] = assay: Antibacterial activity against methicillin-sensitive Staphylococcus aureus 12-5 after 18 to 24 hrs by standard twofold serial dilution method

| Structure (SMILES) | MIC (Staphylococcus aureus [1]) [µg/mL] | MIC (Streptococcus pneumoniae [2]) [µg/mL] | MIC (Streptococcus pneumoniae [3]) [µg/mL] | MIC (Escherichia coli [4]) [µg/mL] | MIC (Klebsiella pneumoniae [5]) [µg/mL] | MIC (Klebsiella pneumoniae [6]) [µg/mL] | MIC (Klebsiella pneumoniae [7]) [µg/mL] | MIC [8] [µg/mL] | MIC [9] [µg/mL] | MIC (Staphylococcus aureus [10]) [µg/mL] | MIC (Staphylococcus aureus [11]) [µg/mL] | MIC [12] [µg/mL] | MIC (Staphylococcus aureus [13]) [µg/mL] | MIC (Pseudomonas aeruginosa [14]) [µg/mL] | MIC (Escherichia coli [15]) [µg/mL] | MIC (Escherichia coli [16]) [µg/mL] | MIC (Klebsiella pneumoniae [17]) [µg/mL] | MIC [18] [µg/mL] | MIC (Escherichia coli [19]) [µg/mL] | MIC (Klebsiella pneumoniae [20]) [µg/mL] | also measured |
| --- | --- | --- | --- | --- | --- | --- | --- | --- | --- | --- | --- | --- | --- | --- | --- | --- | --- | --- | --- | --- | --- |
| NC[C@H]1/C(=N\OCc2ccccc2)CN1c1nc2c(cc1F)c(=O)c(C(=O)O)cn2[C@@H]1C[C@@H]1F | 0.125 (≈ 0.266 µM) | 4 (≈ 8.52 µM) | 0.5 (≈ 1.07 µM) | 0.125 (≈ 0.266 µM) | 0.5 (≈ 1.07 µM) | 1 (≈ 2.13 µM) | 1 (≈ 2.13 µM) | 0.5 (≈ 1.07 µM) | 2 (≈ 4.26 µM) | 32 (≈ 68.2 µM) | 0.25 (≈ 0.533 µM) | 16 (≈ 34.1 µM) | 64 (≈ 136 µM) | 64 (≈ 136 µM) | > 128 | > 128 | > 128 | 8 (≈ 17 µM) | 0.25 (≈ 0.533 µM) | 16 (≈ 34.1 µM) | MIC (Staphylococcus aureus [21]): 32 µg/mL (≈ 68.2 µM); MIC [22]: 0.25 µg/mL (≈ 0.533 µM); MIC (Staphylococcus aureus [23]): 0.25 µg/mL (≈ 0.533 µM); MIC (Klebsiella pneumoniae [24]): > 128 µg/mL; MIC (Klebsiella pneumoniae [25]): 4 µg/mL (≈ 8.52 µM); MIC (Pseudomonas aeruginosa [26]): 4 µg/mL (≈ 8.52 µM); MIC (Staphylococcus aureus [27]): 0.125 µg/mL (≈ 0.266 µM); MIC [28]: 8 µg/mL (≈ 17 µM); MIC [29]: 0.25 µg/mL (≈ 0.533 µM); MIC (Escherichia coli [30]): > 128 µg/mL; MIC (Escherichia coli [31]): 32 µg/mL (≈ 68.2 µM); MIC (Staphylococcus aureus [32]): 0.25 µg/mL (≈ 0.533 µM) |
| CO/N=C1/CN(c2cc3c(cc2F)c(=O)c(C(=O)O)cn3[C@@H]2C[C@@H]2F)[C@@H]1CN | 0.5 (≈ 1.27 µM) | 2 (≈ 5.1 µM) | 0.5 (≈ 1.27 µM) | 0.06 (≈ 0.153 µM) | 1 (≈ 2.55 µM) | 0.5 (≈ 1.27 µM) | 0.25 (≈ 0.637 µM) | 1 (≈ 2.55 µM) | 1 (≈ 2.55 µM) | 64 (≈ 163 µM) | 0.5 (≈ 1.27 µM) | 16 (≈ 40.8 µM) | 64 (≈ 163 µM) | 64 (≈ 163 µM) | 128 (≈ 326 µM) | > 128 | 128 (≈ 326 µM) | 8 (≈ 20.4 µM) | 0.5 (≈ 1.27 µM) | 16 (≈ 40.8 µM) | MIC (Staphylococcus aureus [21]): 128 µg/mL (≈ 326 µM); MIC [22]: 0.5 µg/mL (≈ 1.27 µM); MIC (Staphylococcus aureus [23]): 0.5 µg/mL (≈ 1.27 µM); MIC (Klebsiella pneumoniae [24]): 128 µg/mL (≈ 326 µM); MIC (Klebsiella pneumoniae [25]): 4 µg/mL (≈ 10.2 µM); MIC (Pseudomonas aeruginosa [26]): 1 µg/mL (≈ 2.55 µM); MIC (Staphylococcus aureus [27]): 0.25 µg/mL (≈ 0.637 µM); MIC [28]: 16 µg/mL (≈ 40.8 µM); MIC [29]: 0.5 µg/mL (≈ 1.27 µM); MIC (Escherichia coli [30]): > 128 µg/mL; MIC (Escherichia coli [31]): 128 µg/mL (≈ 326 µM); MIC (Staphylococcus aureus [32]): 0.5 µg/mL (≈ 1.27 µM) |
| CO/N=C1/CCN(c2nc3c(cc2F)c(=O)c(C(=O)O)cn3[C@@H]2C[C@@H]2F)CC1N (stereo not given in full) | 1 (≈ 2.45 µM) | 4 (≈ 9.82 µM) | 1 (≈ 2.45 µM) | 0.25 (≈ 0.614 µM) | 2 (≈ 4.91 µM) | 1 (≈ 2.45 µM) | 1 (≈ 2.45 µM) | < 0.008 | 4 (≈ 9.82 µM) | > 128 | 2 (≈ 4.91 µM) | > 128 | > 128 | 128 (≈ 314 µM) | > 128 | > 128 | > 128 | < 0.008 | 8 (≈ 19.6 µM) | 64 (≈ 157 µM) | MIC (Staphylococcus aureus [21]): > 128 µg/mL; MIC [22]: 1 µg/mL (≈ 2.45 µM); MIC (Staphylococcus aureus [23]): 2 µg/mL (≈ 4.91 µM); MIC (Klebsiella pneumoniae [24]): > 128 µg/mL; MIC (Klebsiella pneumoniae [25]): 32 µg/mL (≈ 78.6 µM); MIC (Pseudomonas aeruginosa [26]): 16 µg/mL (≈ 39.3 µM); MIC (Staphylococcus aureus [27]): 1 µg/mL (≈ 2.45 µM); MIC [28]: 1 µg/mL (≈ 2.45 µM); MIC [29]: 1 µg/mL (≈ 2.45 µM); MIC (Escherichia coli [30]): > 128 µg/mL; MIC (Escherichia coli [31]): 16 µg/mL (≈ 39.3 µM); MIC (Staphylococcus aureus [32]): 2 µg/mL (≈ 4.91 µM) |
| CO/N=C1/CN(c2c(F)cc3c(=O)c(C(=O)O)cn([C@@H]4C[C@@H]4F)c3c2OC)[C@H]1CN | < 0.008 | 2 (≈ 4.73 µM) | 0.25 (≈ 0.592 µM) | 0.25 (≈ 0.592 µM) | 0.5 (≈ 1.18 µM) | 0.5 (≈ 1.18 µM) | 0.5 (≈ 1.18 µM) | 0.125 (≈ 0.296 µM) | 0.5 (≈ 1.18 µM) | 4 (≈ 9.47 µM) | 0.125 (≈ 0.296 µM) | 2 (≈ 4.73 µM) | 8 (≈ 18.9 µM) | 16 (≈ 37.9 µM) | 128 (≈ 303 µM) | 64 (≈ 152 µM) | 64 (≈ 152 µM) | 2 (≈ 4.73 µM) | 2 (≈ 4.73 µM) | 16 (≈ 37.9 µM) | MIC (Staphylococcus aureus [21]): 8 µg/mL (≈ 18.9 µM); MIC [22]: 0.125 µg/mL (≈ 0.296 µM); MIC (Staphylococcus aureus [23]): 0.125 µg/mL (≈ 0.296 µM); MIC (Klebsiella pneumoniae [24]): 64 µg/mL (≈ 152 µM); MIC (Klebsiella pneumoniae [25]): 2 µg/mL (≈ 4.73 µM); MIC (Pseudomonas aeruginosa [26]): 2 µg/mL (≈ 4.73 µM); MIC (Staphylococcus aureus [27]): 0.06 µg/mL (≈ 0.142 µM); MIC [28]: 2 µg/mL (≈ 4.73 µM); MIC [29]: 0.125 µg/mL (≈ 0.296 µM); MIC (Escherichia coli [30]): 64 µg/mL (≈ 152 µM); MIC (Escherichia coli [31]): 32 µg/mL (≈ 75.8 µM); MIC (Staphylococcus aureus [32]): 0.125 µg/mL (≈ 0.296 µM) |
| NC[C@H]1/C(=N\OCc2ccccc2)CN1c1cc2c(cc1F)c(=O)c(C(=O)O)cn2[C@@H]1C[C@@H]1F | 0.015 (≈ 0.032 µM) | 1 (≈ 2.13 µM) | 0.25 (≈ 0.534 µM) | 0.125 (≈ 0.267 µM) | 0.125 (≈ 0.267 µM) | 0.06 (≈ 0.128 µM) | 0.25 (≈ 0.534 µM) | 0.25 (≈ 0.534 µM) | 0.5 (≈ 1.07 µM) | 8 (≈ 17.1 µM) | 0.03 (≈ 0.064 µM) | 4 (≈ 8.54 µM) | 16 (≈ 34.2 µM) | 6 (≈ 12.8 µM) | 64 (≈ 137 µM) | 128 (≈ 273 µM) | 32 (≈ 68.3 µM) | 2 (≈ 4.27 µM) | 2 (≈ 4.27 µM) | 8 (≈ 17.1 µM) | MIC (Staphylococcus aureus [21]): 16 µg/mL (≈ 34.2 µM); MIC [22]: 0.125 µg/mL (≈ 0.267 µM); MIC (Staphylococcus aureus [23]): 0.125 µg/mL (≈ 0.267 µM); MIC (Klebsiella pneumoniae [24]): 64 µg/mL (≈ 137 µM); MIC (Klebsiella pneumoniae [25]): 1 µg/mL (≈ 2.13 µM); MIC (Pseudomonas aeruginosa [26]): 2 µg/mL (≈ 4.27 µM); MIC (Staphylococcus aureus [27]): 0.03 µg/mL (≈ 0.064 µM); MIC [28]: 16 µg/mL (≈ 34.2 µM); MIC [29]: 0.125 µg/mL (≈ 0.267 µM); MIC (Escherichia coli [30]): > 128 µg/mL; MIC (Escherichia coli [31]): 16 µg/mL (≈ 34.2 µM); MIC (Staphylococcus aureus [32]): 0.125 µg/mL (≈ 0.267 µM) |
